Series [1] in a line: Oral gavage pharmacokinetics in rats, plasma oxycodone by LC-MS/MS. As to conditions: 0.89 mg/kg oral, rat; for Plasma Concentration (oxycodone), Mean: mean of the N quantifiable subjects.
Series [2] in a line: Oral gavage pharmacokinetics in rats, plasma oxymorphone by LC-MS/MS. As to conditions: for concentration at 0.25 h / concentration at 0.5 h / concentration at 1 h / concentration at 2 h / concentration at 3 h / concentration at 4 h / concentration at 6 h: oral, Plasma oxymorphone.
[3] abbreviates: 1.77 mg/kg Oxymorphone HCl oral, rat, hydrochloride.

Where “and” joins values, the source holds several entries; their conditions need not be identical. Equal values may be shown once. Where a name gives a salt, the structure may show the parent alone.

`COc1ccc2c3c1O[C@H]1C(OC(=O)C[C@H](OC(=O)C[C@H](O)C(=O)O)C(=O)O)=CC[C@@]4(O)[C@@H](C2)N(C)CC[C@]314` [Oxycodone Dimalate, (S)-4-((S)-1-Carboxy-3-(((4R,4aS,7aR,12bS)-4a-hydroxy-9-methoxy-3-methyl-2,3,4,4a,5,7a-hexahydro-1H-4,12-methanobenzofuro[3,2-e]isoquinolin-7-yl)oxy)-3-oxopropoxy)-2-hydroxy-4-oxobutanoic acid trifluoroacetic acid salt]: the “Plasma Concentration (oxycodone) by Subject” value in series [1] (0.25 h), in series [1] (0.5 h), in series [1] (2 h), in series [1] (3 h), in series [1] (4 h) and in series [1] (6 h) was “BLQ” throughout. The “Plasma Concentration (oxycodone), Mean” value in series [1] (0.25 h), in series [1] (0.5 h), in series [1] (2 h), in series [1] (3 h), in series [1] (4 h) and in series [1] (6 h) was “BLQ” each time.
On to `COc1ccc2c3c1O[C@H]1C(=O)CC[C@@]4(O)[C@@H](C2)N(C)CC[C@]314.Cl` [Oxycodone HCl, oxycodone HCl], for which the “Plasma Concentration (oxycodone) by Subject” value in series [1] (2 h), in series [1] (3 h), in series [1] (4 h) and in series [1] (6 h) was “BLQ” in each case. The “Plasma Concentration (oxycodone), Mean” value in series [1] (2 h), in series [1] (3 h), in series [1] (4 h) and in series [1] (6 h) was “BLQ” throughout.
Consider `COc1ccc2c3c1O[C@H]1C(OC(=O)[C@H](C)O)=CC[C@@]4(O)[C@@H](C2)N(C)CC[C@]314` [Oxycodone Lactate, (S)-(4R,4aS,7aR,12bS)-4a-Hydroxy-9-methoxy-3-methyl-2,3,4,4a,5,7a-hexahydro-1H-4,12-methanobenzofuro[3,2-e]isoquinolin-7-yl 2-hydroxypropanoate trifluoroacetic acid salt], for which, in series [1] (6 h), the “Plasma Concentration (oxycodone) by Subject” value is recorded as “BLQ” and the “Plasma Concentration (oxycodone), Mean” value is “BLQ”.
On to `COc1ccc2c3c1O[C@H]1C(OC(=O)C[C@H](O)C(=O)O)=CC[C@@]4(O)[C@@H](C2)N(C)CC[C@]314.Cl` [Oxycodone Malate, (S)-2-Hydroxy-4-(((4R,4aS,7aR,12bS)-4a-hydroxy-9-methoxy-3-methyl-2,3,4,4a,5,7a-hexahydro-1H-4,12-methanobenzofuro[3,2-e]isoquinolin-7-yl)oxy)-4-oxobutanoic acid hydrochloride], for which, in series [1] (6 h), the “Plasma Concentration (oxycodone) by Subject” value was “BLQ” and the “Plasma Concentration (oxycodone), Mean” value is listed as “BLQ”.
For `COc1ccc2c3c1O[C@H]1C(OC(=O)[C@H](O)c4ccccc4)=CC[C@@]4(O)[C@@H](C2)N(C)CC[C@]314` [Oxycodone Mandelate, (R)-(4R,4aS,7aR,12bS)-4a-Hydroxy-9-methoxy-3-methyl-2,3,4,4a,5,7a-hexahydro-1H-4,12-methanobenzofuro[3,2-e]isoquinolin-7-yl 2-hydroxy-2-phenylacetate trifluoroacetic acid salt], the “Plasma Concentration (oxycodone) by Subject” value in series [1] (4 h) and in series [1] (6 h) was “BLQ” in each case. In addition, the “Plasma Concentration (oxycodone), Mean” value in series [1] (4 h) and in series [1] (6 h) was “BLQ” throughout.
As usually defined, the Cmax is the peak of the concentration-time curve. The term Tmax denotes the time at which the peak concentration occurs. For `CN1CC[C@]23c4c5ccc(O)c4O[C@H]2C(=O)CC[C@@]3(O)[C@H]1C5` [Oxymorphone HCl, oxymorphone hydrochloride], the “Plasma oxymorphone, individual rats” value in series [2] (1.77 mg/kg Oxymorphone HCl oral, rat, 0.25 h, hydrochloride) was 0.379 ng/mL and 0.862 ng/mL and 1.144 ng/mL; in series [2] (1.77 mg/kg Oxymorphone HCl oral, rat, 0.5 h, hydrochloride), 0.343 ng/mL and 0.925 ng/mL and 0.799 ng/mL; in series [2] (1.77 mg/kg Oxymorphone HCl oral, rat, 1 h, hydrochloride), 0.545 ng/mL and 1.557 ng/mL and 1.110 ng/mL; in series [2] (1.77 mg/kg Oxymorphone HCl oral, rat, 2 h, hydrochloride) it was 0.728 ng/mL and 1.826 ng/mL and 0.621 ng/mL; in series [2] (1.77 mg/kg Oxymorphone HCl oral, rat, 3 h, hydrochloride), 0.676 ng/mL and BQL (BQL: <0.200 ng/mL); in series [2] (1.77 mg/kg Oxymorphone HCl oral, rat, 4 h, hydrochloride) it was 0.429 ng/mL and BQL (BQL: <0.200 ng/mL). Further, the “Plasma oxymorphone, individual rats” value is “BQL (BQL: <0.200 ng/mL)” in series [2] (1.77 mg/kg Oxymorphone HCl oral, rat, 6 h, hydrochloride); 4.958 ng/mL and 3.246 ng/mL and 1.767 ng/mL in series [2] (3.54 mg/kg Oxymorphone HCl oral, rat, 0.25 h, hydrochloride); 4.716 ng/mL and 2.469 ng/mL and 2.095 ng/mL in series [2] (3.54 mg/kg Oxymorphone HCl oral, rat, 0.5 h, hydrochloride); 3.423 ng/mL and 2.146 ng/mL and 0.913 ng/mL in series [2] (3.54 mg/kg Oxymorphone HCl oral, rat, 1 h, hydrochloride); 2.434 ng/mL and 1.639 ng/mL in series [2] (3.54 mg/kg Oxymorphone HCl oral, rat, 2 h, hydrochloride); 0.577 ng/mL and 1.635 ng/mL and 1.276 ng/mL in series [2] (3.54 mg/kg Oxymorphone HCl oral, rat, 3 h, hydrochloride). The “Plasma oxymorphone, individual rats” value in series [2] (3.54 mg/kg Oxymorphone HCl oral, rat, 4 h, hydrochloride) was 0.545 ng/mL and 0.618 ng/mL; in series [2] (3.54 mg/kg Oxymorphone HCl oral, rat, 6 h, hydrochloride), 0.796 ng/mL and 0.774 ng/mL. In addition, the “Cmax of plasma oxymorphone, individual rats” value in series [2] (setting [3]) was 0.728 ng/mL and 1.826 ng/mL and 1.144 ng/mL. The “Tmax of plasma oxymorphone, individual rats” value in series [2] (setting [3]) was 2.00 h (2×) and 0.25 h. For the same molecule, the concentration at 0.25 h is 0.795 ng/mL in series [2] (male, Sprague Dawley, rat, plasma, 1.77 mg/kg, Mean, 1.77 mg/kg Oxymorphone HCl oral, 0.25 h) and 3.32 ng/mL in series [2] (male, Sprague Dawley, rat, plasma, 3.54 mg/kg, Mean, 3.54 mg/kg Oxymorphone HCl oral, 0.25 h). Also, the concentration at 0.5 h in series [2] (male, Sprague Dawley, rat, plasma, 1.77 mg/kg, Mean, 1.77 mg/kg Oxymorphone HCl oral, 0.5 h) turned out to be 0.689 ng/mL; in series [2] (male, Sprague Dawley, rat, plasma, 3.54 mg/kg, Mean, 3.54 mg/kg Oxymorphone HCl oral, 0.5 h) it was 3.09 ng/mL. The concentration at 1 h in series [2] (male, Sprague Dawley, rat, plasma, 1.77 mg/kg, Mean, 1.77 mg/kg Oxymorphone HCl oral, 1 h) came to 1.07 ng/mL; in series [2] (male, Sprague Dawley, rat, plasma, 3.54 mg/kg, Mean, 3.54 mg/kg Oxymorphone HCl oral, 1 h) it was 2.16 ng/mL. Further, the concentration at 2 h came out at 1.06 ng/mL in series [2] (male, Sprague Dawley, rat, plasma, 1.77 mg/kg, Mean, 1.77 mg/kg Oxymorphone HCl oral, 2 h); 1.78 ng/mL in series [2] (male, Sprague Dawley, rat, plasma, 3.54 mg/kg, Mean, 3.54 mg/kg Oxymorphone HCl oral, 2 h); 1.27 ng/mL in series [2] (male, Sprague Dawley, rat, plasma, 3.54 mg/kg, individual rats, 3.54 mg/kg Oxymorphone HCl oral, 2 h). For the same molecule, the concentration at 3 h came to 0.378 ng/mL in series [2] (male, Sprague Dawley, rat, plasma, 1.77 mg/kg, Mean, 1.77 mg/kg Oxymorphone HCl oral, 3 h); 0.457 ng/mL in series [2] (male, Sprague Dawley, rat, plasma, 1.77 mg/kg, individual rats, 1.77 mg/kg Oxymorphone HCl oral, 3 h); 1.16 ng/mL in series [2] (male, Sprague Dawley, rat, plasma, 3.54 mg/kg, Mean, 3.54 mg/kg Oxymorphone HCl oral, 3 h). For the same molecule, the concentration at 4 h in series [2] (male, Sprague Dawley, rat, plasma, 1.77 mg/kg, Mean, 1.77 mg/kg Oxymorphone HCl oral, 4 h) worked out at 0.312 ng/mL; in series [2] (male, Sprague Dawley, rat, plasma, 1.77 mg/kg, individual rats, 1.77 mg/kg Oxymorphone HCl oral, 4 h) it was 0.508 ng/mL; in series [2] (male, Sprague Dawley, rat, plasma, 3.54 mg/kg, Mean, 3.54 mg/kg Oxymorphone HCl oral, 4 h), 0.499 ng/mL; in series [2] (male, Sprague Dawley, rat, plasma, 3.54 mg/kg, individual rats, 3.54 mg/kg Oxymorphone HCl oral, 4 h) it was 0.335 ng/mL. Moreover, the concentration at 6 h is 0.6 ng/mL in series [2] (male, Sprague Dawley, rat, plasma, 1.77 mg/kg, Mean, 1.77 mg/kg Oxymorphone HCl oral, 6 h); 1.8 ng/mL in series [2] (male, Sprague Dawley, rat, plasma, 1.77 mg/kg, individual rats, 1.77 mg/kg Oxymorphone HCl oral, 6 h); 0.674 ng/mL in series [2] (male, Sprague Dawley, rat, plasma, 3.54 mg/kg, Mean, 3.54 mg/kg Oxymorphone HCl oral, 6 h); 0.453 ng/mL in series [2] (male, Sprague Dawley, rat, plasma, 3.54 mg/kg, individual rats, 3.54 mg/kg Oxymorphone HCl oral, 6 h). For the same molecule, in series [2] (male, Sprague Dawley, rat, plasma, po, 1.77 mg/kg, Cmax of plasma oxymorphone, Mean, 1.77 mg/kg Oxymorphone HCl oral), the concentration peaked (Cmax) at 1.23 ng/mL. Besides, the time to peak (Tmax) in series [2] (male, Sprague Dawley, rat, plasma, po, 1.77 mg/kg, Tmax of plasma oxymorphone, Mean, 1.77 mg/kg Oxymorphone HCl oral) came out at 1.42 h.
Turning to `CCCCCCCC/C=C\CCCCCCCC(=O)OC1=CC[C@@]2(O)[C@H]3Cc4ccc(O)c5c4[C@@]2(CCN3C)[C@H]1O5` [Oxymorphone Oleate, trifluoroacetic acid salt], the “Plasma oxymorphone, individual rats” value is “BQL (BQL: <0.200 ng/mL)” in series [2] (7.12 mg/kg oral, Ex No. B3, rat, 0.25 h, trifluoroacetic acid salt); “BQL (BQL: <0.200 ng/mL)” in series [2] (7.12 mg/kg oral, Ex No. B3, rat, 0.5 h, trifluoroacetic acid salt); “BQL (BQL: <0.200 ng/mL)” in series [2] (7.12 mg/kg oral, Ex No. B3, rat, 2 h, trifluoroacetic acid salt).

Values taken from US10695342B2, “Methods and compositions for preventing opioid abuse” (Albany Molecular Research, Inc., priority 2015, dated 2020).
